Test results from ChEMBL document CHEMBL3044818, “Fungicide resistance status in French populations of the wheat eyespot fungi Oculimacula acuformis and Oculimacula yallundae” (Pest Manag Sci, 2013).
Values after ≈ are worked out from the molar mass of the structure shown.

Legend:
Oculimacula yallundae [1] = assay: Resistance index, ratio of EC50 for sterol 14alpha-demethylation inhibitor-resistant Oculimacula yallundae TriR1 to EC50 for wild type Oculimacula yallundae TriS by mycelial growth inhibition assay; assay type: functional
Oculimacula yallundae [2] = assay: Resistance index, ratio of EC50 for sterol 14alpha-demethylation inhibitor-resistant Oculimacula yallundae TriR2 to EC50 for sterol 14alpha-demethylation inhibitor-resistant Oculimacula yallundae TriR1 by germ tube elongation assay; assay type: functional
[3] = Selectivity index, ratio of EC50 for Oculimacula acuformis to EC50 for Oculimacula yallundae in presence of 5 g sodium succinate by mycelial growth inhibition assay; assay type: functional
Oculimacula yallundae [4] = assay: Resistance index, ratio of EC50 for sterol 14alpha-demethylation inhibitor-resistant Oculimacula yallundae TriR2 to EC50 for wild type Oculimacula yallundae TriS by mycelial growth inhibition assay; assay type: functional
Oculimacula yallundae [5] = assay: Resistance index, ratio of EC50 for sterol 14alpha-demethylation inhibitor-resistant Oculimacula yallundae MDR to EC50 for wild type Oculimacula yallundae TriS by germ tube elongation assay; assay type: functional
Oculimacula yallundae [6] = assay: Resistance index, ratio of EC50 for sterol 14alpha-demethylation inhibitor-resistant Oculimacula yallundae TriR2 to EC50 for wild type Oculimacula yallundae TriS by germ tube elongation assay; assay type: functional
[7] = Selectivity index, ratio of EC50 for Oculimacula acuformis to EC50 for Oculimacula yallundae by germ tube elongation inhibition assay; assay type: functional
Oculimacula yallundae [8] = assay: Fungicidal activity against Oculimacula yallundae assessed as inhibition of mycelial growth in presence of 5 g sodium succinate incubated at 19 degC in dark for 4 weeks; assay type: functional, organism-based; conditions: 672 h
Oculimacula acuformis [9] = assay: Fungicidal activity against Oculimacula acuformis assessed as inhibition of mycelial growth in presence of 10 g glucose incubated at 19 degC in dark for 4 weeks; assay type: functional, organism-based; conditions: 672 h
Oculimacula yallundae [10] = assay: Resistance index, ratio of EC50 for sterol 14alpha-demethylation inhibitor-resistant Oculimacula yallundae MDR to EC50 for wild type Oculimacula yallundae TriS by mycelial growth inhibition assay; assay type: functional
Oculimacula yallundae [11] = assay: Resistance index, ratio of EC50 for sterol 14alpha-demethylation inhibitor-resistant Oculimacula yallundae MDR to EC50 for sterol 14alpha-demethylation inhibitor-resistant Oculimacula yallundae TriR1 by mycelial growth inhibition assay; assay type: functional
Oculimacula yallundae [12] = assay: Resistance index, ratio of EC50 for sterol 14alpha-demethylation inhibitor-resistant Oculimacula yallundae MDR to EC50 for sterol 14alpha-demethylation inhibitor-resistant Oculimacula yallundae TriR1 by germ tube elongation assay; assay type: functional
[13] = Selectivity index, ratio of EC50 for Oculimacula acuformis to EC50 for Oculimacula yallundae in presence of 10 g glucose by mycelial growth inhibition assay; assay type: functional
Oculimacula yallundae [14] = assay: Resistance index, ratio of EC50 for sterol 14alpha-demethylation inhibitor-resistant Oculimacula yallundae TriR2 to EC50 for sterol 14alpha-demethylation inhibitor-resistant Oculimacula yallundae TriR1 by mycelial growth inhibition assay; assay type: functional
Oculimacula acuformis [15] = assay: Fungicidal activity against Oculimacula acuformis assessed as inhibition of mycelial growth in presence of 5 g sodium succinate incubated at 19 degC in dark for 4 weeks; assay type: functional, organism-based; conditions: 672 h
Oculimacula acuformis [16] = assay: Fungicidal activity against Oculimacula acuformis assessed as inhibition of germ tube elongation incubated at 19 degC in dark for 48 hr; assay type: functional, organism-based
Oculimacula yallundae [17] = assay: Fungicidal activity against Oculimacula yallundae assessed as inhibition of germ tube elongation incubated at 19 degC in dark for 48 hr; assay type: functional, organism-based
Oculimacula yallundae [18] = assay: Resistance index, ratio of EC50 for sterol 14alpha-demethylation inhibitor-resistant Oculimacula yallundae TriR1 to EC50 for wild type Oculimacula yallundae TriS by germ tube elongation assay; assay type: functional
Oculimacula yallundae [19] = assay: Fungicidal activity against Oculimacula yallundae assessed as inhibition of mycelial growth in presence of 10 g glucose incubated at 19 degC in dark for 4 weeks; assay type: functional, organism-based; conditions: 672 h

Which “Ratio EC50” value (Oculimacula yallundae [1]) does the source give for `O=C(Nc1ccccc1-c1ccc(Cl)cc1)c1cccnc1Cl` [BOSCALID] here?
The value was 0.8.

And the “Ratio EC50” value (Oculimacula yallundae [2])?
The value was 1.2.

What about the Ratio EC50 [3] of the same compound?
The Ratio EC50 was 0.06.

What about the “Ratio EC50” value (Oculimacula yallundae [4]) of the same compound?
The value was 1.

And the “Ratio EC50” value (Oculimacula yallundae [5])?
Its value is 5.

What about the “Ratio EC50” value (Oculimacula yallundae [6]) of the same compound?
The value was 1.3.

And the Ratio EC50 [7]?
The Ratio EC50 was 0.8.

And the EC50 (Oculimacula yallundae [8])?
The EC50 was 5 µg/mL.

What about the EC50 (Oculimacula acuformis [9]) of the same compound?
Its EC50 is 0.3 µg/mL.

And the “Ratio EC50” value (Oculimacula yallundae [10])?
Its value is 7.5.

What about the “Ratio EC50” value (Oculimacula yallundae [11]) of the same compound?
Its value is 10.

What about the “Ratio EC50” value (Oculimacula yallundae [12]) of the same compound?
The value was 4.5.

And the Ratio EC50 [13]?
The Ratio EC50 was 0.08.

And the “Ratio EC50” value (Oculimacula yallundae [14])?
The value was 1.3.

What about the EC50 (Oculimacula acuformis [15]) of the same compound?
The EC50 was 0.3 µg/mL.

What about the EC50 (Oculimacula acuformis [16]) of the same compound?
The EC50 was 0.025 µg/mL (≈ 0.0728 µM).

What about the EC50 (Oculimacula yallundae [17]) of the same compound?
Its EC50 is 0.03 µg/mL (≈ 0.0874 µM).

What about the “Ratio EC50” value (Oculimacula yallundae [18]) of the same compound?
Its value is 1.1.

And the EC50 (Oculimacula yallundae [19])?
Its EC50 is 0.4 µg/mL.
